From US20220372067A1, “3.ALPHA.-HYDROXY-17.BETA.-AMIDE NEUROACTIVE STEROIDS AND COMPOSITIONS THEREOF” (SAGE THERAPEUTICS, INC., priority 2018, published 2022)

Target: GABAA receptor (TBPS binding site), rat brain cortical membranes
Assay: [35S]-TBPS binding assay, rat brain cortical membranes in the presence of 5 mM GABA
Settings: inhibition of 3 nM [35S]-TBPS binding
Description: [^35S]-t-Butylbicyclophosphorothionate (TBPS) binding assays using rat brain cortical membranes in the presence of 5 mM GABA has been described (Gee et al, J. Pharmacol. Exp. Ther. 1987, 241, 346-353; Hawkinson et al, Mol. Pharmacol. 1994, 46, 977-985; Lewin, A. H et al., Mol. Pharmacol. 1989, 35, 189-194).
Briefly, cortices are rapidly removed following decapitation of carbon dioxide-anesthetized Sprague-Dawley rats (200-250 g). The cortices are homogenized in 10 volumes of ice-cold 0.32 M sucrose using a glass/teflon homogenizer and centrifuged at 1500×g for 10 min at 4° C. The resultant supernatants are centrifuged at 10,000×g for 20 min at 4° C. to obtain the P2 pellets. The P2 pellets are resuspended in 200 mM NaCl/50 mM Na—K phosphate pH 7.4 buffer and centrifuged at 10,000×g for 10 min at 4° C. This washing procedure is repeated twice and the pellets are resuspended in 10 volumes of buffer. Aliquots ([…]) of the membrane suspensions are incubated with 3 nM [^35S]-TBPS and […] aliquots of test drug dissolved in dimethyl sulfoxide (DMSO) (final 0.5%) in the presence of 5 mM GABA. The incubation is brought to a final volume of 1.0 mL with buffer. Nonspecific binding is determined in the presence of […] and ranged from 15 to 25%. Following a 90 min incubation at room temp, the assays are terminated by filtration through glass fiber filters (Schleicher and Schuell No. 32) using a cell harvester (Brandel) and rinsed three times with ice-cold buffer. Filter bound radioactivity is measured by liquid scintillation spectrometry. Non-linear curve fitting of the overall data for each drug averaged for each concentration is done using Prism (GraphPad). […] The concentration of test compound producing 50% inhibition (IC50) of specific binding and the maximal extent of inhibition (Imax) are determined for the individual experiments with the same model used for the overall data and then the means±SEM.s of the individual experiments are calculated.
Various compounds are or can be screened to determine their potential as modulators of [^35S]-TBPS binding in vitro. These assays are or can be performed in accordance with the above

Q: With CCC[C@@]1(O)CC[C@@]2(C)[C@H](CC[C@@H]3[C@@H]2CC[C@]2(C)[C@@H](C(=O)Nc4ccc(C#N)cn4)CC[C@@H]32)C1 [Example 68, (3R,5R,8R,9S,10S,13S,14S,17S)-N-(5-cyanopyridin-2-yl)-3-hydroxy-10, 13-dimethyl-3-propylhexadecahydro-1H-cyclopenta[a]phenanthrene-17-carboxamide] as the compound, how does the IC50 read?
A: The IC50 was < 100 nM.
